Source: publication PMC12677842, “Unveiling the Potential of a New β‐Cyclodextrin‐Suxibuzone Conjugate in Proteasome Regulation” (Chemmedchem, 2025)

Legend:
[1] = target: T1, human 20S proteasome (h20S core particle); assay: fluorogenic AMC peptide cleavage by purified h20S (activation; Ch-L EC50 […], T-L EC50 […]); format: biochemical
T1 construct: gene PSMB5

[2] = tested on: T1, human 20S proteasome (h20S core particle); assay: fluorogenic AMC peptide cleavage by h20S at […] (activation similar to suxibuzone); format: biochemical

SMILES | EC50 [1] | fluorogenic AMC peptide cleavage by h20S at 5 and 10 uM (activation similar to s) [2]
CCCCC1(COC(=O)CCC(=O)O)C(=O)N(c2ccccc2)N(c2ccccc2)C1=O [SB, suxibuzone] | 4.4 ± 0.4 µM | 
CCCCC1(COC(=O)CCC(=O)NCCO)C(=O)N(c2ccccc2)N(c2ccccc2)C1=O [SB-ETA] |  | both test compounds had activity similar to suxibuzone, with no statistically significant difference
